Source: patent US8329675B2, “Inhibitors of fatty acid amide hydrolase” (Infinity Pharmaceuticals, Inc., priority 2006, dated 2012)
Read-outs that look alike come from different tables or passages of the source.

Target: T1, human FAAH (Homo sapiens, UniProt O00519)
T1 construct: host or cells: COS-7 cells, transient transfection; 13,000 g membrane fraction solubilised in 1% Triton X-100
T1 sequence (O00519 1-579): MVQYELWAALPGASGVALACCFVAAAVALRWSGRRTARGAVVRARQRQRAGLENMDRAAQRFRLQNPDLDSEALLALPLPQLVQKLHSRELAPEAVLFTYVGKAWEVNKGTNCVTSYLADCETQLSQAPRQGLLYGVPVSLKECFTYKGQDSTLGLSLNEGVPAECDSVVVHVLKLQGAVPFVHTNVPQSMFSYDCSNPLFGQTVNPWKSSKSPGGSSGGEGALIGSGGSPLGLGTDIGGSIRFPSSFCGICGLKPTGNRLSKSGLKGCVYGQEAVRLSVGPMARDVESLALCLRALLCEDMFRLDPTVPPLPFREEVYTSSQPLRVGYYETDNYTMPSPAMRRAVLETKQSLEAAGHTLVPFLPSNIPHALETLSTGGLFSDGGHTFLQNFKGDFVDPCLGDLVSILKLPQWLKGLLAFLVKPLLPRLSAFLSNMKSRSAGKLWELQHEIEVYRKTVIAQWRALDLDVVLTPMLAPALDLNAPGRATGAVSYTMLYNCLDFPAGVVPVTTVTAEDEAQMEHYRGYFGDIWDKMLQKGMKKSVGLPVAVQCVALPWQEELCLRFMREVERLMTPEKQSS
Assay: Human FAAH biochemical inhibition assay (AMC arachidonoyl amide fluorescence)
Details: read-out: Activity (Ki)
Method in brief: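 Solubilized membrane fraction from COS-7 cells transfected with human FAAH, used at a final 0.05 mg/ml in 50 mM Hepes pH 7.5, 1 mM EDTA, 0.2% Triton X-100. Inhibitor pre-incubated 30 min at room temperature; 20 uM final AMC arachidonoyl amide added, reaction run 4 h at room temperature, fluorescence read.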

[1] = Table 2, human FAAH (no asterisk)
[2] = Table 1, human FAAH (no asterisk)

Row | SMILES | Ki [1] [µM] | Ki [2] [µM]
1 | Cc1cc(B(O)O)cc(C)c1Oc1cccc(F)c1 [II-283] | 0.01 to 0.1 | 
2 | OB(O)c1ccc2c(c1)Cc1ccccc1-2 [II-30] | 0.01 to 0.1 | 
3 | COC(=O)c1cc(Oc2cccc(F)c2)ccc1B(O)O [II-183] | 0.01 to 0.1 | 
4 | COc1cccc(Oc2ccc(B(O)O)c(F)c2)c1 [II-206] | < 0.01 | 
5 | OB(O)c1ccc(OCCCOc2ccccn2)cc1 [II-120] | 0.01 to 0.1 | 
6 | OB(O)c1ccc(OCc2cn(C3CCCC3)nn2)cc1F [II-1] | 0.01 to 0.1 | 
7 | CN(C)c1cccc(Oc2ccc(B(O)O)cc2F)c1 [II-205] | < 0.01 | 
8 | CCO/N=C(\c1ccccc1)c1ccc(B(O)O)cc1 [II-116] | 0.01 to 0.1 | 
9 | O=C(CCCc1ccc(B(O)O)cc1)c1ccccc1 [II-76] | < 0.01 | 
10 | Nc1cccc(CCOc2ccc(B(O)O)c(F)c2)c1 [II-37] | < 0.01 | 
11 | OB(O)c1ccc(OCCc2ccccc2)cc1F [II-8] | < 0.01 | 
12 | OB(O)c1ccc2sccc2c1 [II-49] | 0.01 to 1 | 
13 | CN(C)c1cccc(Oc2ccc(B(O)O)c(F)c2)c1 [II-201] | 0.01 to 0.1 | 
14 | CCCOc1ccc(Oc2ccc(B(O)O)cc2)cc1F [II-273] | < 0.01 | 
15 | CCCCB(Oc1cccc2cccnc12)c1ccc(Oc2ccccc2)cc1 [II-55] | < 0.01 | 
16 | OB(O)c1cccc(Br)c1 [Compound I-29] |  | 0.01 to 0.1
17 | Cc1ccc(Oc2ccc(B(O)O)cc2)cc1C [II-277] | < 0.01 | 
18 | O=C(NCc1ccccc1)c1ccc(B(O)O)cc1 [Compound I-164] |  | < 0.01
19 | OB(O)c1ccc(OCCCc2ccccc2)cc1 [II-169] | < 0.01 | 
20 | Cc1cccc(COc2ccc(B(O)O)cc2)c1F [II-268] | 0.01 to 0.1 | 
21 | OB(O)c1ccc(OCc2ccn[nH]2)cc1F [II-134] | 0.01 to 0.1 | 
22 | OB(O)c1ccc2cc(OCc3ccccc3)ccc2c1 [Compound I-56] |  | < 0.01
23 | OB(O)c1ccc(COc2ccccc2)cc1 [II-242] | < 0.01 | 
24 | OB(O)c1ccc(COCc2cccc3ccccc23)cc1 [II-111] | < 0.01 | 

Row | SMILES | Ki [1] [µM] | Ki [2] [µM]
25 | COC(=O)c1cccc(Oc2ccc(B(O)O)cc2)c1 [II-285] | < 0.01 | 
26 | COc1ccc2cc(B(O)O)ccc2c1 [Compound I-184] |  | 0.01 to 0.1
27 | OB(O)c1cccc2ccccc12 [Compound I-111] |  | 0.01 to 1
28 | OB(O)c1ccc(-c2cccc(F)c2)cc1F [II-11] | < 0.01 | 
29 | Cc1ccc(Oc2ccc(B(O)O)cc2)cc1 [II-280] | < 0.01 | 
30 | CC(C)(C)OC(=O)n1c(B(O)O)cc2cc(OCc3ccccc3)ccc21 [Compound I-114] |  | > 1
31 | CC1(C)OB(c2ccc(OCc3cccnc3)cc2F)OC1(C)C [II-161] | 0.01 to 0.1 | 
32 | OB(O)c1cc2ccccc2o1 [Compound I-176] |  | > 1
33 | O=C(Nc1ccccc1)c1ccc(B(O)O)cc1 [Compound I-169] |  | 0.01 to 0.1
34 | CCCCOc1ccc(B(O)O)c(C)c1 [Compound I-138] |  | 0.01 to 1
35 | COc1ccccc1B(O)O [Compound I-78] |  | > 1
36 | Cc1cc(COC(=O)c2ccc(B(O)O)cc2)ccc1F [II-247] | 0.01 to 0.1 | 
37 | Cc1cc(Br)cc(B(O)O)c1 [Compound I-25] |  | 0.01 to 1
38 | OB(O)c1cccc(OCCCc2ccccc2)c1 [II-115] | 0.01 to 0.1 | 
39 | O=C(c1ccc(B(O)O)cc1)N1CCCCC1 [II-164] | 0.01 to 0.1 | 
40 | OB(O)c1cc(I)ccc1F [Compound I-1] |  | 0.01 to 1
41 | OB(O)c1ccc(Oc2ccc(Cl)c(C(F)(F)F)c2)cc1 [II-257] | < 0.01 | 
42 | Cc1cc(OCc2ccccc2)ccc1B(O)O [Compound I-134] |  | 0.01 to 0.1
43 | OB(O)c1ccc(CNc2ccccc2)cc1 [II-152] | < 0.01 | 
44 | OB(O)c1cccc(F)c1 [Compound I-71] |  | > 1
45 | OB(O)c1ccc(OCCOc2ccccc2)cc1 [II-129] | < 0.01 | 
46 | OB(O)c1cncnc1 [Compound I-89] |  | > 1
47 | OB(O)c1c(F)cc(Oc2cccc(F)c2)cc1F [II-195] | < 0.01 | 
48 | Cc1cc(Oc2ccc(B(O)O)cc2)ccc1Cl [II-254] | < 0.01 | 

Row | SMILES | Ki [1] [µM] | Ki [2] [µM]
49 | OB(O)c1ccc(COC2C3CC4CC(C3)CC2C4)cc1 (stereo not shown) [II-93] | 0.01 to 0.1 | 
50 | OB(O)c1ccc(-c2ccc(B(O)O)cc2)cc1 [Compound I-198] |  | 0.01 to 0.1
51 | Cn1ccc2cc(B(O)O)ccc21 [II-125] | > 1 | 
52 | OB(O)c1c(F)c(F)cc(F)c1F [Compound I-55] |  | > 1
53 | O=C(OCc1ccccc1)c1ccc(B(O)O)cc1 [Compound I-173] |  | < 0.01
54 | CC1(C)OB(c2ccc(OCc3ccncc3)cc2F)OC1(C)C [II-179] | 0.01 to 0.1 | 
55 | OB(O)c1ccc2c3c(cccc13)CC2 [Compound I-181] |  | 0.01 to 1
56 | CN(C)c1ccc(B(O)O)cc1 [Compound I-68] |  | > 1
57 | Cc1ccc(B(O)O)c(F)c1 [Compound I-110] |  | 0.01 to 1
58 | CS(=O)(=O)c1cccc(B(O)O)c1 [Compound I-47] |  | > 1
59 | CCOc1cc(B(O)O)cc(C(F)(F)F)c1 [Compound I-19] |  | > 1
60 | OB(O)c1ccc(SCc2ccccc2)cc1 [II-234] | < 0.01 | 
61 | COc1ccc(CN(Cc2ccc(OC)cc2)S(=O)(=O)c2ccc(B(O)O)cc2)cc1 [Compound I-117] |  | > 1
62 | OB(O)c1ccco1 [Compound I-93] |  | > 1
63 | OB(O)c1cccc2cnccc12 [Compound I-41] |  | > 1
64 | O=C(NCc1ccccc1)c1cccc(Oc2ccc(B(O)O)cc2)c1 [II-221] | < 0.01 | 
65 | OB(O)c1ccc(OCCc2ccccc2)cc1 [II-167] | < 0.01 | 
66 | NC(=O)c1cccc(-c2cccc(B(O)O)c2)c1 [II-303] | > 1 | 
67 | OB(O)c1csc2cc(Cl)ccc12 [II-24] | 0.01 to 0.1 | 
68 | O=C(N[C@H](COc1ccc(B(O)O)c(F)c1)Cc1ccccc1)c1ccccc1 [II-96] | 0.01 to 0.1 | 
69 | CN(CCc1ccccc1)C(=O)c1ccc(B(O)O)cc1 [II-229] | < 0.01 | 
70 | OB(O)c1ccc2occc2c1 [II-47] | 0.01 to 1 | 
71 | Nc1cccc(Oc2ccc(B(O)O)cc2)c1 [II-287] | 0.01 to 0.1 | 
72 | OB(O)c1ccc2sc(COc3ccccc3)cc2c1 [II-73] | < 0.01 | 

Row | SMILES | Ki [1] [µM] | Ki [2] [µM]
73 | O=C(N[C@@H](COc1ccc(B(O)O)c(F)c1)Cc1ccccc1)c1ccccc1 [II-105] | 0.01 to 1 | 
74 | OB(O)c1ccc(Oc2cccc(Oc3cccc4ccccc34)c2)cc1 [II-190] | 0.01 to 0.1 | 
75 | O=C1c2ccc(B(O)O)cc2C(=O)N1c1ccccc1 [II-144] | 0.01 to 0.1 | 
76 | Cc1cc(CSc2ccc(B(O)O)c(F)c2)ccc1F [II-199] | < 0.01 | 
77 | CNc1cc(B(O)O)cc(C(=O)O)c1 [II-87] | > 1 | 
78 | OB(O)c1ccc(COc2cccc3ccccc23)cc1 [II-119] | < 0.01 | 
79 | CN(C)c1cc(Oc2ccc(Cl)cc2)cc(Oc2ccc(B(O)O)cc2)c1 [II-181] | 0.01 to 1 | 
80 | Cc1ccc(Oc2ccc(B(O)O)c(F)c2)cc1Cl [II-211] | < 0.01 | 
81 | CCCCNC(=O)c1cccc(Oc2ccc(B(O)O)cc2)c1 [II-220] | < 0.01 | 
82 | c1ccc(CCCB(Oc2cccc3cccnc23)c2ccc(Oc3ccccc3)cc2)cc1 [II-54] | < 0.01 | 
83 | CCOc1cc(F)cc(B(O)O)c1 [Compound I-16] |  | 0.01 to 1
84 | Cc1ncc(-c2ccc(B(O)O)cc2)s1 [II-45] | > 1 | 
85 | OB(O)c1cc(C(F)(F)F)cc(C(F)(F)F)c1 [Compound I-63] |  | > 1
86 | CC(C)(C)OC(=O)n1cncc1COc1ccc(B2OC(C)(C)C(C)(C)O2)c(F)c1 [II-133] | < 0.01 | 
87 | O=C(c1ccc(B(O)O)cc1)N(Cc1ccccc1)c1ccccc1 [II-155] | 0.01 to 0.1 | 
88 | COc1c(C)cc(Oc2ccc(B(O)O)cc2)cc1C [II-239] | 0.01 to 0.1 | 
89 | OB(O)c1ccc(OC2CCCCO2)cc1 (stereo not shown) [Compound I-158] |  | 0.01 to 0.1
90 | OB(O)c1ccc2c(c1)OCO2 [Compound I-88] |  | > 1
91 | OB(O)c1cccc(-c2ccccc2)c1 [Compound I-186] |  | 0.01 to 1
92 | OB(O)c1ccc(Br)c(F)c1F [Compound I-34] |  | 0.01 to 0.1
93 | OB(O)c1ccc2[nH]ccc2c1 [Compound I-128] |  | > 1
94 | Cc1nnc(-c2ccc(B(O)O)cc2)o1 [Compound I-121] |  | 0.01 to 0.1
